Measured values taken from patent publication US20230321253A1, “BIFUNCTIONAL COMPOUNDS AND PHARMACEUTICAL USES THEREOF” (RISEN (SUZHOU) PHARMA TECH CO., LTD., priority 2022, published 2023).

Biological target: T1, KRAS-G12D protein (Homo sapiens, UniProt P01116, G12D)
T1 construct: host or cells: Aspc-1 cells
Test: KRAS-G12D protein degradation study in Aspc-1 cells (western blot)
Format: cell-based
Conditions: for inhibition at 0.1 µM / inhibition at 1 µM: ASPC1, 24 h, 24 hours, read-out: Rate of protein degradation (KRAS^G12D); for inhibition at 0.1 µM: Aspc-1 cells treated with 0.1 μM compound; for inhibition at 1 µM: Aspc-1 cells treated with 1 μM compound
Method: Aspc-1 (Cobioer, CBP60546) cells in exponential growth phase were inoculated on a 6-well cell culture plate (Corning, 3516) at density of 1E6/well; and cells in the plate were cultured in 37° C. incubator containing 5% carbon dioxide. The next day, test compounds were dissolved in DMSO (Sigma, RNBF5902) for the preparation of a 10 mM concentration stock solution. The stock solution was diluted with complete medium (RPMI-1640 supplemented with 10% fetal bovine serum, 1% penicillin-streptomycin), yielding working solutions of various concentrations. The plate, after the addition of compounds, was placed in a 5% carbon dioxide incubator, and incubated at 37° C. for 24 hours (final DMSO concentration was 0.1%). The plate was then removed from the incubator, and the cells were washed twice with precooled PBS (Gibco, 14190250), followed by addition of 80 μL RIPA lysis buffer (containing protease inhibitor (Invitrogen™, AM2696)) to each well. The adherent cells were scraped off with a cell scraper, and the cell lysate was transferred to a 1.5 mL centrifuge tube followed with a 30-minute incubation on ice. The lysate was then clarified with centrifugation at 14000 rpm for 10 min at 4° C. The supernatant was transferred into a new 1.5 mL centrifuge tube, and protein concentration was measured with BCA protein detection kit (Thermo Fisher, 23225). KRAS-G12D protein level was assessed by western blot.
A mixture of cell lysate (40 μL) and loading buffer (10 μL 5×SDS (Beyotime, P0015L)) was denatured in a water bath at 95° C. for 10 min. The denatured protein sample, at 30 μL/well, was loaded into the corresponding well of a 4-20% Bis-Tris gel (Kingsley, M00656). Protein samples were initially electrophoresed at 80 V for 30 minutes, followed by 120 V for 40 minutes, until the bromophenol blue strip ran to an appropriate position. After electrophoresis, iBlot2 (Life Technologies, IB21001) was used to transfer the separated samples onto PVDF film. The PVDF membrane was washed with double-distilled water and then blocked in TBST (Thermo Scientific, 28360) buffer containing 5% non-fat milk, for 2 hours. Blocked membrane was rinsed with tris-buffered saline tween-20 (Thermo Scientific, 28360, TBST) three times, 10 minutes each. Membrane was then incubated with 1:1000 diluted KRAS primary antibody (CST, cat #14429S) overnight at 4° C. Membrane was rinsed as described previously followed by 1 hour incubation of secondary antibody at room temperature. After washing the film three times with TBST, ECL color developing solution was applied, and image was captured with Biorad Chemi Doc gel imager. The band gray value was quantified (Image Lab), and protein degradation level was calculated according to the following formula:
Level of RAS protein expression=(RAS-compound/GAPDH)/(RAS-DMSO/GAPDH)
Level of degradation (%)=(1−Rate of RAS protein expression)×100
The symbols “−”, “+”, “++”, and “+++” indicate that the degradation level of KRAS^G12D protein induced by the test compounds was 10% or less, 11 to 30%, 31 to 60%, and greater than 60%, respectively.
Half-maximum degradation concentrations (DC50s) of exemplary test compounds were calculated using GraphPad Prism and their values are shown in Table 6. The symbols “++++”, “+++”, “++” and “+” indicate DC50 equal or less than 10 nM, 11-50 nM, 51-100 nM, and 101-200 nM, respectively.

T1 sequence (P01116 1-188 isoform P01116-2 G12D): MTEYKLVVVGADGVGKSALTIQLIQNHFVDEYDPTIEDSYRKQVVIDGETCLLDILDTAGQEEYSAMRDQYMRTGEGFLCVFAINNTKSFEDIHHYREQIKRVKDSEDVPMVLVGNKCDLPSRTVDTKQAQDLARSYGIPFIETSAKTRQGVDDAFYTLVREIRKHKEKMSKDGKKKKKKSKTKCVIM

Row | Structure (SMILES) | inhibition at 0.1 µM [%] | inhibition at 1 µM [%] | DC50 (Aspc-1 cells, read-out: DC50 of test compound-induced KRAS^G12D protein degradation) [µM]
1 | C#Cc1c(F)ccc2cc(O)cc(-c3ncc4c(N5CC6CCC(C5)N6)nc(OC[C@@H]5C[C@@H](NC(=O)C6(C(=O)N7CCC(c8ccc9c(C%10CCC(=O)NC%10=O)nn(C)c9c8)CC7)CC6)CN5C)nc4c3F)c12 (stereo in doubt) [Compound 96] | 11 to 30 |  | 
2 | C#Cc1c(F)ccc2cc(O)cc(-c3ncc4c(N5CC6CCC(C5)N6)nc(OC5CCN(CCCCCCCCCC(=O)N6CCN(C(=O)C[C@H](NC(=O)[C@@H]7CC(O)CN7C(=O)[C@@H](NC(=O)C7(F)CC7)C(C)(C)C)c7ccc(-c8scnc8C)cc7)CC6)C5)nc4c3F)c12 (stereo in doubt) [Compound 105] | 31 to 60 |  | 
3 | C#Cc1c(F)ccc2cc(O)cc(-c3ncc4c(N5CC6CCC(C5)N6)nc(OCCCN5CCN(CCCCCC(=O)N[C@H](C(=O)N6C[C@H](O)C[C@H]6C(=O)NCc6ccc(-c7scnc7C)cc6)C(C)(C)C)CC5)nc4c3F)c12 [Compound 28] |  | 11 to 30 | 
4 | C#Cc1c(F)ccc2cc(O)cc(-c3ncc4c(N5CC6CCC(C5)N6)nc(OCCCN5CCN(CCCC(=O)N[C@H](C(=O)N6C[C@H](O)C[C@H]6C(=O)NCc6ccc(-c7scnc7C)cc6)C(C)(C)C)CC5)nc4c3F)c12 [Compound 30] |  | 11 to 30 | 
5 | C#Cc1c(F)ccc2cc(O)cc(-c3ncc4c(N5CC6CCC(C5)N6)nc(OC5CCN(CCOCCOCC(=O)N[C@H](C(=O)N6C[C@H](O)C[C@H]6C(=O)NCc6ccc(-c7scnc7C)cc6)C(C)(C)C)CC5)nc4c3F)c12 [Compound 53] |  | 11 to 30 | 
6 | C#Cc1c(F)ccc2cc(O)cc(-c3ncc4c(N5CC6CCC(C5)N6)nc(OC5CCN(CCOCCOCCOCC(=O)N[C@H](C(=O)N6C[C@H](O)C[C@H]6C(=O)NCc6ccc(-c7scnc7C)cc6)C(C)(C)C)CC5)nc4c3F)c12 [Compound 54] |  | ≤ 10 | 
7 | C#Cc1c(F)ccc2cc(O)cc(-c3ncc4c(N5CC6CCC(C5)N6)nc(OC5CCN(CCCCCCCCCCC(=O)N[C@H](C(=O)N6C[C@H](O)C[C@H]6C(=O)N[C@@H](C)c6ccc(-c7scnc7C)cc6)C(C)(C)C)C5)nc4c3F)c12 (stereo partly shown) [Compound 55] | > 60 | > 60 | 
8 | C#Cc1c(F)ccc2cc(O)cc(-c3ncc4c(N5CC6CCC(C5)N6)nc(OCC5CCN(CCCCCCCCCCC(=O)N[C@H](C(=O)N6C[C@H](O)C[C@H]6C(=O)N[C@@H](C)c6ccc(-c7scnc7C)cc6)C(C)(C)C)C5)nc4c3F)c12 (stereo partly shown) [Compound 56] | 31 to 60 | > 60 | 
9 | C#Cc1c(F)ccc2cc(O)cc(-c3ncc4c(N5CC6CCC(C5)N6)nc(OCC5CCN(CCCCCCCCCCC(=O)N6CCC(c7ccc8c(C9CCC(=O)NC9=O)nn(C)c8c7)CC6)C5)nc4c3F)c12 (stereo not shown) [Compound 57] | > 60 | > 60 | 
10 | CCc1c(F)ccc2cc(O)cc(-c3ncc4c(N5CC6CCC(C5)N6)nc(OCC56CCCN5[C@@H](COC(=O)NCCOCCOCCC(=O)N[C@H](C(=O)N5C[C@H](O)C[C@H]5C(=O)N[C@@H](C)c5ccc(-c7scnc7C)cc5)C(C)(C)C)CC6)nc4c3F)c12 (stereo partly shown) [Compound 58] | 11 to 30 | 31 to 60 | 
11 | C#Cc1c(F)ccc2cc(O)cc(-c3ncc4c(N5CC6CCC(C5)N6)nc(OCCCN5CCN(CC(=O)N6CCN(c7ccc8c(c7)C(=O)N(C7CCC(=O)NC7=O)C8=O)CC6)CC5)nc4c3F)c12 (stereo not shown) [Compound 59] | ≤ 10 | ≤ 10 | 
12 | C#Cc1c(F)ccc2cc(O)cc(-c3ncc4c(N5CC6CCC(C5)N6)nc(OCCCN5CCN(C(=O)CN6CCN(c7ccc8c(c7)C(=O)N(C7CCC(=O)NC7=O)C8=O)CC6)CC5)nc4c3F)c12 (stereo not shown) [Compound 60] | ≤ 10 | 11 to 30 | 
13 | C#Cc1c(F)ccc2cc(O)cc(-c3ncc4c(N5CC6CCC(C5)N6)nc(OCCCN5CCN(C(=O)CN6CCN(c7cccc8c7C(=O)N(C7CCC(=O)NC7=O)C8=O)CC6)CC5)nc4c3F)c12 (stereo not shown) [Compound 61] | ≤ 10 | ≤ 10 | 
14 | C#Cc1c(F)ccc2cc(O)cc(-c3ncc4c(N5CC6CCC(C5)N6)nc(OCCCN5CCN(CC(=O)N6CCN(c7cccc8c7C(=O)N(C7CCC(=O)NC7=O)C8=O)CC6)CC5)nc4c3F)c12 (stereo not shown) [Compound 62] | ≤ 10 | ≤ 10 | 
15 | C#Cc1c(F)ccc2cc(O)cc(-c3ncc4c(N5CC6CCC(C5)N6)nc(OCCCN5CCN(CC(=O)N6CCN(C(=O)C[C@H](NC(=O)[C@@H]7C[C@@H](O)CN7C(=O)[C@@H](NC(=O)C7(F)CC7)C(C)(C)C)c7ccc(-c8scnc8C)cc7)CC6)CC5)nc4c3F)c12 [Compound 63] | ≤ 10 | 11 to 30 | 
16 | C#Cc1c(F)ccc2cc(O)cc(-c3ncc4c(N5CC6CCC(C5)N6)nc(OCCCN5CCN(C(=O)C[C@H](NC(=O)[C@@H]6C[C@@H](O)CN6C(=O)[C@@H](NC(=O)C6(F)CC6)C(C)(C)C)c6ccc(-c7scnc7C)cc6)CC5)nc4c3F)c12 [Compound 64] | ≤ 10 | 11 to 30 | 
17 | CCc1c(F)ccc2cc(O)cc(-c3ncc4c(N5CC6CCC(C5)N6)nc(OCC56CCCN5[C@@H](COC(=O)NCCCCC(=O)N[C@H](C(=O)N5C[C@H](O)C[C@H]5C(=O)N[C@@H](C)c5ccc(-c7scnc7C)cc5)C(C)(C)C)CC6)nc4c3F)c12 (stereo partly shown) [Compound 67] | ≤ 10 | 31 to 60 | 
18 | CCc1c(F)ccc2cc(O)cc(-c3ncc4c(N5CC6CCC(C5)N6)nc(OCC56CCCN5[C@@H](COC(=O)NCCCCCCCC(=O)N[C@H](C(=O)N5C[C@H](O)C[C@H]5C(=O)N[C@@H](C)c5ccc(-c7scnc7C)cc5)C(C)(C)C)CC6)nc4c3F)c12 (stereo partly shown) [Compound 68] | 31 to 60 | > 60 | 
19 | C#Cc1c(F)ccc2cc(O)cc(-c3ncc4c(N5CC6CCC(C5)N6)nc(OC5CCN(CC(=O)N6CCN(C(=O)C[C@H](NC(=O)[C@@H]7C[C@@H](O)CN7C(=O)[C@@H](NC(=O)C7(F)CC7)C(C)(C)C)c7ccc(-c8scnc8C)cc7)CC6)CC5)nc4c3F)c12 [Compound 71] | ≤ 10 |  | 
20 | C#Cc1c(F)ccc2cc(O)cc(-c3ncc4c(N5CC6CCC(C5)N6)nc(OCCCN5CCC(C(=O)N6CCC(c7ccc8c(C9CCC(=O)NC9=O)nn(C)c8c7)CC6)CC5)nc4c3F)c12 (stereo not shown) [Compound 72] | > 60 | > 60 | 
21 | C#Cc1c(F)ccc2cc(O)cc(-c3ncc4c(N5CC6CCC(C5)N6)nc(OCCCN5CCN(CCC(=O)C6CCC(c7ccc8c(C9CCC(=O)NC9=O)nn(C)c8c7)CC6)CC5)nc4c3F)c12 (stereo not shown) [Compound 74] | 31 to 60 |  | 
22 | C#Cc1c(F)ccc2cc(O)cc(-c3ncc4c(N5CC6CCC(C5)N6)nc(OCCCN5CCC(C(=O)N6CCC(N7CCC(c8ccc9c(C%10CCC(=O)NC%10=O)nn(C)c9c8)CC7)CC6)CC5)nc4c3F)c12 (stereo not shown) [Compound 75] | > 60 |  | < 0.01
23 | C#Cc1c(F)ccc2cc(O)cc(-c3ncc4c(N5CC6CCC(C5)N6)nc(OC5CCN(CCCCCCCCOc6cc(-c7ncsc7C)ccc6CNC(=O)[C@@H]6C[C@@H](O)CN6C(=O)[C@@H](NC(=O)C6(F)CC6)C(C)(C)C)CC5)nc4c3F)c12 [Compound 76] | ≤ 10 |  | 
24 | C#Cc1c(F)ccc2cc(O)cc(-c3ncc4c(N5CC6CCC(C5)N6)nc(OC5CCN(CCCCCCCCCCOc6cc(-c7ncsc7C)ccc6CNC(=O)[C@@H]6C[C@@H](O)CN6C(=O)[C@@H](NC(=O)C6(F)CC6)C(C)(C)C)CC5)nc4c3F)c12 [Compound 77] | ≤ 10 |  | 
25 | C#Cc1c(F)ccc2cc(O)cc(-c3ncc4c(N5CC6CCC(C5)N6)nc(OC5CCN(CCCCCCCCCCCCOc6cc(-c7ncsc7C)ccc6CNC(=O)[C@@H]6C[C@@H](O)CN6C(=O)[C@@H](NC(=O)C6(F)CC6)C(C)(C)C)CC5)nc4c3F)c12 [Compound 78] | ≤ 10 |  | 
26 | CCc1c(F)ccc2cc(O)cc(-c3ncc4c(N5CC6CCC(C5)N6)nc(OC5CCN(CCCCCCCCCCC(=O)N[C@H](C(=O)N6C[C@H](O)C[C@H]6C(=O)N[C@@H](C)c6ccc(-c7scnc7C)cc6)C(C)(C)C)CC5)nc4c3F)c12 [Compound 80] | 31 to 60 |  | 
